IC50 and inhibition data for 17 molecules are collected here from US10172868B2, “Substituted quinazolines for inhibiting kinase activity” (NeuPharma, Inc., priority 2013, dated 2019).

For one assay, the system named is H3255 cells. The experiment in a line: Inhibition of cancer cell growth, MTT assay, H3255. Conditions: Homo sapiens, NCI-H3255, 72 h, read-out: IC50 in H3255 cells. In general terms: Tetrazolium assays rely on reduction of a dye to a coloured formazan, in cell work by metabolically active cells.
For a further assay, the target named is BTK (Homo sapiens (Human), UniProt Q06187). Briefly: Z'-LYTE kinase inhibition assay, BTK. The format is biochemical. The settings on record: for inhibition at 0.041 µM: compound at 0.041 μM, read-out: % inhibition against BTK. The method, then: Inhibitory activities of compounds against BTK, EGFR and EGFR mutants (EGFR L858R, EGFR T790M, EGFR L858R/T790M), FGFR1, FGFR2, JAK2, JAK3 and KDR were measured by Invitrogen using Z'-LYTE® Method as briefly described in the following.
Chain of BTK (Q06187 whole entry): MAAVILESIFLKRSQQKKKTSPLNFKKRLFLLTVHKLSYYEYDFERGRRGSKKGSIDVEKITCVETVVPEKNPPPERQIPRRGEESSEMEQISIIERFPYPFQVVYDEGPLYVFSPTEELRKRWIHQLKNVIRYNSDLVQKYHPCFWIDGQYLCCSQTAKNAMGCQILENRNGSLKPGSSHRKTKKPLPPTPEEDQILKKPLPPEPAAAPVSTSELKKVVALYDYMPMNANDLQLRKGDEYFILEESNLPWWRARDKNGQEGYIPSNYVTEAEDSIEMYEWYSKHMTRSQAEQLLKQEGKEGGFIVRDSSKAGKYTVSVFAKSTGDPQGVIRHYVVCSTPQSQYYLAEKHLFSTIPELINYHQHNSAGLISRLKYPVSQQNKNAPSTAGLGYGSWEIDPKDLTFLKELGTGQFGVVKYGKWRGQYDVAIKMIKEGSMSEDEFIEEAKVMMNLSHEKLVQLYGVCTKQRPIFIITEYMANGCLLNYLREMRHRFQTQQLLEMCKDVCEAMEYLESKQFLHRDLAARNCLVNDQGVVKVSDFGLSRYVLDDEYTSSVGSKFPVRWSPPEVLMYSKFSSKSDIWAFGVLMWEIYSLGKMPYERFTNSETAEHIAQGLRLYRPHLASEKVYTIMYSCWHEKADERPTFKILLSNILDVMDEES
Test Compounds are screened in 1% DMSO (final) in the well. For 10 point titrations, 3-fold serial dilutions are conducted from the starting concentration. All ATP Solutions are diluted to a 4× working concentration in Kinase Buffer (50 mM HEPES pH 7.5, 0.01% BRIJ-35, 10 mM MgCl2, 1 mM EGTA). Peptide/Kinase Mixtures are diluted to a 2× working concentration in the appropriate Kinase Buffers as described below.
(v) Peptide/Kinase Mixtures for Measurement of BTK:
The 2×BTK/Tyr 01 mixture is prepared in 50 mM HEPES pH 7.5. 0.01% BRIJ-35, 10 mM MgCl2, 1 mM EGTA.
The mixture is then incubated for another 60-minute at room temperature for development reaction. Finally fluorescence is read by plate reader.
To determine IC50 of a compound against EGFR, EGFR mutant and other kinases, a series of concentrations of the compound were tested for the inhibition. […] The scale utilized in Table 4 is as follows: +++ less than 100 nM, ++ 100-500 nM and + greater than 500 nM.

For a further assay, the target named is EGFR (ErbB1) (Homo sapiens (Human), UniProt P00533). The experiment in a line: Z'-LYTE kinase inhibition assay, EGFR. Type of assay: biochemical. The settings on record: for inhibition at 0.041 µM: read-out: % inhibition against EGFR (Compound at 0.041 μM). Summed up:
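IC50 values derived from 10-point, 3-fold compound dilution series (1% DMSO final) using Z'-LYTE fluorescence readout after 60-min development. Reaction: EGFR (1.1-5.25 ng) with 2 μM peptide, 60 min at room temperature in HEPES pH 7.5 buffer containing MgCl2, MnCl2, EGTA, DTT and BRIJ-35.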

Another assay concerns H1975 cells. Briefly: Inhibition of cancer cell growth, MTT assay, H1975. Conditions: Homo sapiens, NCI-H1975, 72 h, read-out: IC50 in H1975 cells.
The next assay deals with EGFR (ErbB1) T790M L858R (Homo sapiens (Human), UniProt P00533, L858R/T790M). Briefly: Z'-LYTE kinase inhibition assay, EGFR L858R/T790M. The settings on record: for inhibition at 0.0137 µM: read-out: % inhibition against EGFR L858R/T790M (Compound at 0.0137 μM); for IC50: read-out: IC50 against EGFR L858R/T790M; for inhibition at 1 µM: read-out: % inhibition against EGFR L858R/T790M (Compound at 1 μM). Type of assay: biochemical. Summed up: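 IC50 taken from 10-point, 3-fold serial dilutions tested in 1% DMSO. The mutant kinase and peptide were prepared in HEPES pH 6.5 buffer with BRIJ-35, MgCl2, EGTA and NaN3, then reacted with ATP for 1 h at room temperature. Development reagent was added for a further hour before the fluorescence readout.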
Chain of EGFR (ErbB1) T790M L858R (P00533 25-1210 T790M/L858R): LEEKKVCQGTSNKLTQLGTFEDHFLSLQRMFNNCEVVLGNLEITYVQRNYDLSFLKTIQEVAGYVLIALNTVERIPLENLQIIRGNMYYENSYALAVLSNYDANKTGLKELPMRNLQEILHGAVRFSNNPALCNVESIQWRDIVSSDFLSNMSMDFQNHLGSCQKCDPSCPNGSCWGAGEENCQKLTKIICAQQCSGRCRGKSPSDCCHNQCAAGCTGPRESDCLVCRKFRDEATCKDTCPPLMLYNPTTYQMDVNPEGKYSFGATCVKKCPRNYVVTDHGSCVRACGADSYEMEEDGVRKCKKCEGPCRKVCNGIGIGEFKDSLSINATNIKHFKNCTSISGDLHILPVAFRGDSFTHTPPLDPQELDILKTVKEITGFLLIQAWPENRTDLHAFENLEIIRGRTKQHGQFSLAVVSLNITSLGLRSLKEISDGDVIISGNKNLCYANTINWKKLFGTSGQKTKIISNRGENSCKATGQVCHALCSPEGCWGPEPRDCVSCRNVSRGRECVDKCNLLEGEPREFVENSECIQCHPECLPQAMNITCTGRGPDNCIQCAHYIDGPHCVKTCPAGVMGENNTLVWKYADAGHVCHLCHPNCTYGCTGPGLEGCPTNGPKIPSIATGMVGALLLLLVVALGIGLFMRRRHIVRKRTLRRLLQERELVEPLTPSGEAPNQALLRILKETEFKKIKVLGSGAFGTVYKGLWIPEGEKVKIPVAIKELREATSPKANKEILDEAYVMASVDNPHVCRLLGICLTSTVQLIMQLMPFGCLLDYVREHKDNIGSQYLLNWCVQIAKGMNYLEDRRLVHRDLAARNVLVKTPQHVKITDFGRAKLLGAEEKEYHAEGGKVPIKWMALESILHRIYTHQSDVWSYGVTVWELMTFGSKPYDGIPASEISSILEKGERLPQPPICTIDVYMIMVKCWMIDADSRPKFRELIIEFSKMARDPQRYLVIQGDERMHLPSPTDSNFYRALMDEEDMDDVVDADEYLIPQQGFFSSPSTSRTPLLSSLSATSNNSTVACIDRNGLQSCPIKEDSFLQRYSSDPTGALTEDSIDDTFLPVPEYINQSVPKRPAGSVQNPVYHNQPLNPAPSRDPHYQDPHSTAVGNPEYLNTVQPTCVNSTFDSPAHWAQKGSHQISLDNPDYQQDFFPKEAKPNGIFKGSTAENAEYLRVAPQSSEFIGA

A further assay relates to A431 cells. The experiment in a line: cells. The settings on record: Homo sapiens, A-431, 72 h, read-out: IC50 in A431 cells.
The next assay relates to HCC827 cells. The experiment in a line: cells. The settings on record: Homo sapiens, HCC827, 72 h, read-out: IC50 in HCC827 cells.

Each structure is given as a SMILES string.

Chain of EGFR (ErbB1) (P00533 25-1210): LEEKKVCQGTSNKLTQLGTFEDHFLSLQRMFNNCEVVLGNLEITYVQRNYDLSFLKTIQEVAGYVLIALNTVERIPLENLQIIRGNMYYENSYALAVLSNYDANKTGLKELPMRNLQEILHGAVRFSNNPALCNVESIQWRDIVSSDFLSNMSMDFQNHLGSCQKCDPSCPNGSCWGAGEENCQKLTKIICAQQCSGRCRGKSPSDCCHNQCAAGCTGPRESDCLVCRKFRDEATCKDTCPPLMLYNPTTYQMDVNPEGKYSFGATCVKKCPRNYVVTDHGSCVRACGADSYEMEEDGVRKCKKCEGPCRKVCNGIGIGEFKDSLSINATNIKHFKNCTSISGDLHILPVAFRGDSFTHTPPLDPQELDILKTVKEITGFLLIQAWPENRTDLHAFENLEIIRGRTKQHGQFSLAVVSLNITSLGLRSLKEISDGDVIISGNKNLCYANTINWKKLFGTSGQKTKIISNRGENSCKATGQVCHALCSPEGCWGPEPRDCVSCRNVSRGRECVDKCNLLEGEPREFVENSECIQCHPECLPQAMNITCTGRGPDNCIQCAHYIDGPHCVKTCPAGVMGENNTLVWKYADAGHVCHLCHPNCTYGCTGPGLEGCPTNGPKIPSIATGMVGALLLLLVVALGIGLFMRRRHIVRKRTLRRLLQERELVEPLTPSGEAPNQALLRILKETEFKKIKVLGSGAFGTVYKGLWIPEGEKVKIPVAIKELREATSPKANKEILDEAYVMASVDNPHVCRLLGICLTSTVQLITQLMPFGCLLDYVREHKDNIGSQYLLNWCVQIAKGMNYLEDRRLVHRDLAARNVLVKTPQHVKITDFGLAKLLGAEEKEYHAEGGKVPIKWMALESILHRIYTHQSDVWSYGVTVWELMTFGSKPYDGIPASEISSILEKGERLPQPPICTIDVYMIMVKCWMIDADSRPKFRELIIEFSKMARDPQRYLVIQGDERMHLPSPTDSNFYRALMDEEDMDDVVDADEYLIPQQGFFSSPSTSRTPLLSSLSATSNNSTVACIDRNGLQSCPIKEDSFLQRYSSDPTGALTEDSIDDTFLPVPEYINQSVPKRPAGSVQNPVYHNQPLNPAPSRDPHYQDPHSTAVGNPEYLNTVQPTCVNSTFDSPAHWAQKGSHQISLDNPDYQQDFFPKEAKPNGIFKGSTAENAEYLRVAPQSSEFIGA
Procedure for A431 cells: (§1) Taxol (as a positive control. Sigma) and compounds were dissolved in DMSO (Sigma), and the final concentration of DMSO in the medium was 1%. Tumor cells were plated in 96-well plates at densities of about 4000 cells/well of a 96-well plate and allowed to adhere/grow for 24 h. They were then treated with various concentrations of drug for 72 h, 3-(4,5-Dimethylthiazol-2-yl)-2,5-diphenyltetrazolium bromide (MTT, Sigma) was used to determine the number of viable cells at the time of compound addition and the number of cells remaining after 72 h compound exposure. The number of cells remaining after 72 h was compared to the number of viable cells at the time of compound addition by measuring the absorbance at 570 nm, allowing for the calculation of growth inhibition.
(§2) All concentrations of compounds were tested in triplicate and controls were averaged over 4 wells. IC50 was calculated by plotting the concentration of compound vs the percentage of inhibition in treated wells using GraphPad Prism 5.
(§3) The scale utilized in Tables 5 is as follows: +++ less than 100 nM; ++ between 100 nM and 500 nM; and + greater than 500 nM.
Procedure for HCC827 cells: as §1, §2, §3

Consider `C=CC(=O)Nc1cccc(-c2cccc3cnc(Nc4ccc(NC5CCN(C)CC5)cc4)nc23)c1` [Example C118, N-(3-(2-((4-((1-methylpiperidin-4-yl)amino)phenyl)amino)quinazolin-8-yl)phenyl)acrylamide], for which the IC50 in the assay on H3255 cells was 100 to 500 nM; with H1975 cells, under 100 nM; on EGFR (ErbB1) T790M L858R it was under 100 nM; with A431 cells it was under 100 nM. In addition, the inhibition at 0.041 µM at BTK and on EGFR (ErbB1) was over 50% throughout. The inhibition at 0.0137 µM at EGFR (ErbB1) T790M L858R is over 50%.
Take `Fc1ccc(Cl)cc1-c1cccc2cnc(Nc3ccc(N4CCNCC4)cc3)nc12` [Example C024, 8-(5-chloro-2-fluorophenyl)-N-(4-(piperazin-1-yl)phenyl)quinazolin-2-amine]: the IC50 in the assay on H1975 cells and in the assay with HCC827 cells was over 500 nM throughout. For the same molecule, the inhibition at 1 µM at EGFR (ErbB1) T790M L858R is over 50%.
With `C=CC(=O)Nc1cccc(-c2cccc3cnc(Nc4ccc(OC5CCN(C)CC5F)cc4)nc23)c1` (stereo not drawn) [Example C079, N-(3-(2-((4-((3-fluoro-1-methylpiperidin-4-yl)oxy)phenyl)amino)quinazolin-8-yl)phenyl)acrylamide], the IC50 was 100 to 500 nM in the assay on H3255 cells; under 100 nM at BTK (read-out: IC50 against BTK); under 100 nM with H1975 cells; under 100 nM on EGFR (ErbB1) T790M L858R; 100 to 500 nM with A431 cells. The inhibition at 0.041 µM on EGFR (ErbB1) was under 50%.
Regarding `C=CC(=O)Nc1cccc(-c2cccc3cnc(Nc4ccc(NC5CCN(CCO)CC5)cc4)nc23)c1` [Example C139, N-(3-(2-((4-((1-(2-hydroxyethyl)piperidin-4-yl)amino)phenyl)amino)quinazolin-8-yl)phenyl)acrylamide], the IC50 with H3255 cells was 100 to 500 nM; in the assay on H1975 cells, under 100 nM; at EGFR (ErbB1) T790M L858R, under 100 nM; with A431 cells it was under 100 nM. Besides, the inhibition at 0.041 µM at EGFR (ErbB1) is over 50%. In addition, on EGFR (ErbB1) T790M L858R, the inhibition at 0.0137 µM is over 50%.
For the molecule `C=CC(=O)Nc1cccc(-c2cccc3cnc(Nc4ccc(O[C@@H]5CCN(C)C5)cc4)nc23)c1` [Example C123, (R)-N-(3-(2-((4-((1-methylpyrrolidin-3-yl)oxy)phenyl)amino)quinazolin-8-yl)phenyl)acrylamide], the inhibition at 0.041 µM on BTK and at EGFR (ErbB1) was over 50% each time. Besides, the IC50 in the assay on H1975 cells, on EGFR (ErbB1) T790M L858R and in the assay with A431 cells was under 100 nM in each case. Besides, at EGFR (ErbB1) T790M L858R, the inhibition at 0.0137 µM was over 50%.
With `C=CC(=O)Nc1cccc(-c2cccc3cnc(Nc4ccc(NC5CCN(C)CC5)cc4F)nc23)c1` [Example C140, N-(3-(2-((2-fluoro-4-((1-methylpiperidin-4-yl)amino)phenyl)amino)quinazolin-8-yl)phenyl)acrylamide], the IC50 in the assay with H3255 cells is over 500 nM; with H1975 cells, under 100 nM; on EGFR (ErbB1) T790M L858R, under 100 nM; in the assay with A431 cells, over 500 nM. Also, the inhibition at 0.041 µM on EGFR (ErbB1) was over 50%. Besides, on EGFR (ErbB1) T790M L858R, the inhibition at 0.0137 µM is over 50%.
`C=CC(=O)Nc1cccc(-c2cccc3cnc(Nc4ccc(N5CCN(CC)CC5)cc4)nc23)c1F` [Example C038, N-(3-(2-((4-(4-ethylpiperazin-1-yl)phenyl)amino)quinazolin-8-yl)-2-fluorophenyl)acrylamide]: the IC50 in the assay with H1975 cells and with HCC827 cells was under 100 nM each time.
In the case of `C=CC(=O)Nc1cccc(-c2cccc3cnc(Nc4ccc(N[C@H]5CCN(C)C5)cc4)nc23)c1` [Example C127, (S)-N-(3-(2-((4-((1-methylpyrrolidin-3-yl)amino)phenyl)amino)quinazolin-8-yl)phenyl)acrylamide], the IC50 with H3255 cells is 100 to 500 nM; in the assay with H1975 cells it was under 100 nM; on EGFR (ErbB1) T790M L858R, under 100 nM; in the assay with A431 cells it was under 100 nM. For the same molecule, on EGFR (ErbB1), the inhibition at 0.041 µM is over 50%. Also, the inhibition at 0.0137 µM on EGFR (ErbB1) T790M L858R is over 50%.
For the molecule `C=CC(=O)Nc1cccc(-c2cccc3cnc(Nc4ccc(N5CCN(CCOC)CC5)cc4)nc23)c1` [Example C152, N-(3-(2-((4-(4-(2-methoxyethyl)piperazin-1-yl)phenyl)amino)quinazolin-8-yl)phenyl)acrylamide], the IC50 with H3255 cells was 100 to 500 nM; in the assay on H1975 cells, under 100 nM; with A431 cells it was 100 to 500 nM. Besides, the inhibition at 0.041 µM at EGFR (ErbB1) was under 50%. Moreover, the inhibition at 0.0137 µM on EGFR (ErbB1) T790M L858R is over 50%.
Turning to `c1ccc(-c2cccc3cnc(Nc4ccc(N5CCNCC5)cc4)nc23)cc1` [Example C030, 8-phenyl-N-(4-(piperazin-1-yl)phenyl)quinazolin-2-amine], the inhibition at 1 µM on EGFR (ErbB1) (read-out: % inhibition against EGFR (Compound at 1 μM)) and at EGFR (ErbB1) T790M L858R was over 50% in each case. For the same molecule, the IC50 in the assay with H1975 cells and with HCC827 cells was 100 to 500 nM each time.
On to `C=CC(=O)Nc1cccc(-c2cccc3cnc(Nc4ccc(O[C@H]5CCN(C)C5)cc4)nc23)c1` [Example C121, (S)-N-(3-(2-((4-((1-methylpyrrolidin-3-yl)oxy)phenyl)amino)quinazolin-8-yl)phenyl)acrylamide], for which the inhibition at 0.041 µM is over 50% at BTK and under 50% on EGFR (ErbB1). In addition, the results for the IC50 in the assay with H1975 cells, at EGFR (ErbB1) T790M L858R and in the assay on A431 cells were under 100 nM, under 100 nM and 100 to 500 nM, respectively. Besides, the inhibition at 0.0137 µM at EGFR (ErbB1) T790M L858R was over 50%.
Turning to `C=CC(=O)Nc1cccc(-c2cccc3cnc(Nc4cc(F)c(N5CCN(CCO)CC5)cc4F)nc23)c1` [Example C162, N-(3-(2-((2,5-difluoro-4-(4-(2-hydroxyethyl)piperazin-1-yl)phenyl)amino)quinazolin-8-yl)phenyl)acrylamide], the IC50 with H3255 cells was over 500 nM; with H1975 cells, 100 to 500 nM.
As to `C=CC(=O)Nc1cccc(-c2cccc3cnc(Nc4ccc(OC5CCN(CCO)CC5)cc4)nc23)c1` [Example C137, N-(3-(2-((4-((1-(2-hydroxyethyl)piperidin-4-yl)oxy)phenyl)amino)quinazolin-8-yl)phenyl)acrylamide], the IC50 in the assay with H3255 cells is over 500 nM; in the assay with H1975 cells, under 100 nM; on EGFR (ErbB1) T790M L858R, under 100 nM; in the assay with A431 cells it was 100 to 500 nM. In addition, the inhibition at 0.041 µM on EGFR (ErbB1) was over 50%. The inhibition at 0.0137 µM at EGFR (ErbB1) T790M L858R was over 50%.
As to `C=CC(=O)Nc1cccc(-c2cccc3cnc(Nc4cc(F)c(N5CCN(CCOC)CC5)cc4F)nc23)c1` [Example C161, N-(3-(2-((2,5-difluoro-4-(4-(2-methoxyethyl)piperazin-1-yl)phenyl)amino)quinazolin-8-yl)phenyl)acrylamide], the IC50 with H3255 cells is over 500 nM; in the assay with H1975 cells, 100 to 500 nM. Also, the inhibition at 0.0137 µM at EGFR (ErbB1) T790M L858R is under 50%.
Take `Fc1ccc(OCCN2CCOCC2)cc1-c1cccc2cnc(Nc3ccc(N4CCNCC4)cc3)nc12` [Example C028, 8-(2-fluoro-5-(2-morpholinoethoxy)phenyl)-N-(4-(piperazin-1-yl)phenyl)quinazolin-2-amine]: the IC50 in the assay on H1975 cells and with HCC827 cells was over 500 nM each time. Further, the inhibition at 1 µM on EGFR (ErbB1) T790M L858R is over 50%.
On to `C=CC(=O)Nc1cccc(-c2cccc3cnc(Nc4ccc(OC5CCN(C)CC5)cc4)nc23)c1` [Example C126, N-(3-(2-((4-((1-methylpiperidin-4-yl)oxy)phenyl)amino)quinazolin-8-yl)phenyl)acrylamide], for which the inhibition at 0.041 µM at BTK and on EGFR (ErbB1) was over 50% in each case. Moreover, the IC50 in the assay on H1975 cells, at EGFR (ErbB1) T790M L858R and in the assay with A431 cells was under 100 nM each time. The inhibition at 0.0137 µM on EGFR (ErbB1) T790M L858R is over 50%.
For the molecule `C=CC(=O)Nc1cccc(-c2c(CO)ccc3cnc(Nc4ccc(N5CCN(C)CC5)cc4)nc23)c1` [Example C037, N-(3-(7-(hydroxymethyl)-2-((4-(4-methylpiperazin-1-yl)phenyl)amino)quinazolin-8-yl)phenyl)acrylamide], the inhibition at 0.041 µM at EGFR (ErbB1) is over 50%. Further, the IC50 in the assay with H1975 cells, in the assay on HCC827 cells and in the assay on A431 cells was under 100 nM each time.
